In PubChem BioAssay AID1259411 (Chemical Carcinogenesis Research Information System (CCRIS), 2018):
Activity calls are given as the source filed them. How the calls were made is not given here.

Tested on: rodent carcinogenicity bioassays, tumor incidence
Assay: CCRIS carcinogenicity studies
Details: Dose: 0
Method in brief: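 NCI-built, expert-reviewed records of carcinogenicity and related test outcomes (mutagenicity, tumor promotion/inhibition) compiled from published and report sources, historical span 1985-2011, not updated.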

C=CC#N
carcinogen call (Species: RAT, Strain/Sex: SPRAGUE-DAWLEY/FEMALE, Route: GAVAGE, 5 MG/KG IN OLIVE OIL 1/D 3 D/WK FOR 52 WK (STUDY DURATION: LIFETIME)): inactive; negative
carcinogen call (Species: RAT, Strain/Sex: SPRAGUE-DAWLEY/FEMALE, Route: INHALATION, 60 PPM 4 HR/D 5 D/WK FOR 7 WK THEN 7 HR/D 5 D/WK FOR 8 WK ADMINISTRATION STARTED WITH EMBRYOS ON 12TH DAY OF GESTATIO): inactive; negative
carcinogen call (Species: RAT, Strain/Sex: SPRAGUE-DAWLEY/FEMALE, Route: INHALATION, 60 PPM 4 HR/D 5 D/WK FOR 7 WK THEN 7 HR/D 5 D/WK FOR 97 WK ADMINISTRATION STARTED WITH EMBRYOS ON DAY 12 OF GESTATION, Tumor Site: Type of Lesion: MAMMARY GLAND: TUMORS, LIVER: ANGIOSARCOMA, BRAIN: GLIOMA, Tumor Site: Type of Lesion: MAMMARY GLAND: TUMORS, LIVER: ANGIOSARCOMA, BRAIN: GLIOMA): active; positive
carcinogen call (Species: RAT, Strain/Sex: SPRAGUE-DAWLEY/FEMALE, Route: ORAL, 1, 100 PPM IN DRINKING WATER FOR 22 MO (STUDY DURATION: 20 MO), 1, 100 PPM IN DRINKING WATER FOR 22 MO (STUDY DURATION: 20 MO), Tumor Site: Type of Lesion: BRAIN: ASTROCYTOMA, ZYMBAL'S GLAND/EAR CANAL: ADENOMA OR CARCINOMA, FORESTOMACH: SQUAMOUS CELL PAPILLOMA/PAPILLOMA OR SQ, Tumor Site: Type of Lesion: BRAIN: ASTROCYTOMA, ZYMBAL'S GLAND/EAR CANAL: ADENOMA OR CARCINOMA, FORESTOMACH: SQUAMOUS CELL PAPILLOMA/PAPILLOMA OR SQ): active; positive
carcinogen call (Species: RAT, Strain/Sex: SPRAGUE-DAWLEY/MALE, Route: GAVAGE, 0.1, 10 MG/KG/D 7D/WK FOR 20 MO (STUDY DURATION: 20 MO), 0.1, 10 MG/KG/D 7D/WK FOR 20 MO (STUDY DURATION: 20 MO), Tumor Site: Type of Lesion: BRAIN: ASTROCYTOMA, ZYMBAL'S GLAND/EAR CANAL: CARCINOMA, FORESTOMACH: SQUAMOUS CELL PAPILLOMA/PAPILLOMA, SQUAMOUS CELL C, Tumor Site: Type of Lesion: BRAIN: ASTROCYTOMA, ZYMBAL'S GLAND/EAR CANAL: CARCINOMA, FORESTOMACH: SQUAMOUS CELL PAPILLOMA/PAPILLOMA, SQUAMOUS CELL C): active; positive
carcinogen call (Species: RAT, Strain/Sex: SPRAGUE-DAWLEY/MALE, Route: GAVAGE, 5 MG/KG BW IN OLIVE OIL 3/WK FOR 52 WK (STUDY DURATION: LIFETIME), Tumor Site: Type of Lesion: [BRAIN WAS ONLY SITE EVALUATED]): inactive; negative
carcinogen call (Species: RAT, Strain/Sex: SPRAGUE-DAWLEY/MALE, Route: GAVAGE, 5 MG/KG IN OLIVE OIL 1/D 3 D/WK FOR 52 WK (STUDY DURATION: LIFETIME)): inactive; negative
carcinogen call (Species: RAT, Strain/Sex: SPRAGUE-DAWLEY/MALE, Route: INHALATION, 60 PPM 4 HR/D 5 D/WK FOR 7 WK THEN 7 HR/D 5 D/WK FOR 8 WK ADMINISTRATION STARTED WITH EMBRYOS ON 12TH DAY OF GESTATIO): inactive; negative
carcinogen call (Species: RAT, Strain/Sex: SPRAGUE-DAWLEY/MALE, Route: INHALATION, 60 PPM 4 HR/D 5 D/WK FOR 7 WK THEN 7 HR/D 5 D/WK FOR 97 WK ADMINISTRATION STARTED WITH EMBRYOS ON DAY 12 OF GESTATION, Tumor Site: Type of Lesion: ZYMBAL GLAND: CARCINOMA, LIVER: HEPATOMA, BRAIN: GLIOMA, Tumor Site: Type of Lesion: ZYMBAL GLAND: CARCINOMA, LIVER: HEPATOMA, BRAIN: GLIOMA): active; positive
carcinogen call (Species: RAT, Strain/Sex: SPRAGUE-DAWLEY/MALE, Route: ORAL, 1, 100 PPM IN DRINKING WATER FOR 22 MO (STUDY DURATION: 20 MO), 1, 100 PPM IN DRINKING WATER FOR 22 MO (STUDY DURATION: 20 MO), Tumor Site: Type of Lesion: BRAIN: ASTROCYTOMA, ZYMBAL'S GLAND/EAR CANAL: ADENOMA OR CARCINOMA, FORESTOMACH: SQUAMOUS CELL PAPILLOMA/PAPILLOMA OR SQ, Tumor Site: Type of Lesion: BRAIN: ASTROCYTOMA, ZYMBAL'S GLAND/EAR CANAL: ADENOMA OR CARCINOMA, FORESTOMACH: SQUAMOUS CELL PAPILLOMA/PAPILLOMA OR SQ): active; positive
carcinogen call (Species: RAT, Strain/Sex: SPRAGUE-DAWLEY/MALE, Route: ORAL, 20, 100, 500 PPM IN DRINKING WATER FOR DURATION OF STUDY (STUDY DURATION: 2 YR), 20, 100, 500 PPM IN DRINKING WATER FOR DURATION OF STUDY (STUDY DURATION: 2 YR), Tumor Site: Type of Lesion: ZYMBAL'S GLAND: TUMOR): active; positive
carcinogen call (Species: Rat, Strain/Sex: Sprague Dawley/Female (80/group, Controls; 48/group, Experimental), Route: Oral, 35, 100, 300 ppm (0; 4.4; 10.8; 25.0 mg/kg) in drinking water for 2 yr, 35, 100, 300 ppm (0; 4.4; 10.8; 25.0 mg/kg) in drinking water for 2 yr, Tumor Site: Type of Lesion: Nervous system (brain and spinal cord): Combined focal or multifocal glial cell proliferation and/or astrocytoma (1/80): active; positive
carcinogen call (Species: Rat, Strain/Sex: Sprague Dawley/Male (80/group, Controls; 48/group, Experimental), Route: Oral, 35, 100, 300 ppm (0; 3.4; 8.5; 21.3 mg/kg in drinking water for 2 yr), 35, 100, 300 ppm (0; 3.4; 8.5; 21.3 mg/kg in drinking water for 2 yr), Tumor Site: Type of Lesion: Nervous system (brain and spinal cord): Combined focal or multifocal glial cell proliferation and/or astrocytoma (1/80): active; positive
